Results taken from article PMC6521598, “Identification of GLPG/ABBV-2737, a Novel Class of Corrector, Which Exerts Functional Synergy With Other CFTR Modulators” (Frontiers in Pharmacology, 2019).

Key:
F508del CFTR [1] = target: T1, F508del CFTR (Homo sapiens, UniProt P13569, DEL508-508); assay: CSE-MEM assay (cell surface expression DiscoverX assay); type: cell-based; parameters: University of North Carolina; host or cells: primary human bronchial epithelial cells, F508del/F508del donors; conditions: 24 h treatment; for % F508del PM Expression vs control: VX809 rescue = 100%
Procedure: Twenty-five microliters of cell plating reagent 5 (DiscoverX, 93-0563R5A) containing 5000 U2OS EA-MEM F508del_CFTR cells per well was added in white 384 well plates (Greiner, 781080) on day 1 and incubated overnight at 37°C, 5% CO2. On day 2, medium was refreshed and compounds (1 μl of 26 × concentrated solution) were added to the cells. All compounds used during the experiment were first dissolved in DMSO to a 10 mM solution which was then diluted to a 26 × solution in the medium just prior to the experiment. Cells were incubated with compounds for 20–24 h at 37°C, 5% CO2. On day 3, the plates were first incubated at room temperature for 1 h. After 1 h the plates were washed two times with PBS +/+ (Gibco, 14040-091) and 30 μL PBS +/+ (Gibco, 14040-091) was added after the last wash step. Then 15 μL of substrate (DiscoverX, 93-0247: 1 part Flash cell assay buffer + 4 parts Flash substrate) was added per well. After 1 h of incubation at room temperature in the dark, the luminescence signal was read on an EnVision plate reader (PerkinElmer).
To discover novel correctors several high throughput screening campaigns were performed using cell based assays measuring plasma membrane expression of the F508del CFTR protein. The CSE-HRP system used CFBE41O-cells, a lung epithelial cell line, stably transfected with F508del CFTR tagged with HRP in the fourth extracellular loop ([Veit et al., 2014]). The CSE-MEM system, used U2OS cells, an osteosarcoma epithelial cell line, stably transfected with F508del CFTR tagged with a Pro-link moiety at the C-terminal and a plasma membrane located EA (enzyme acceptor) moiety. The latter cells were created by DiscoverX and the assay further optimized to allow robust evaluation in a high throughput manner.
For screening, cells were pre-incubated with compound for 24 h prior to read-out to allow sufficient time for de novo synthesis, and cellular trafficking of F508del-CFTR to reach steady state levels at the plasma membrane. […]

F508del CFTR [2] = target: T1, F508del CFTR; assay: Western blot (Band B/C) in CSE-MEM cells; type: cell-based; parameters: University of North Carolina; host or cells: primary human bronchial epithelial cells, F508del/F508del donors; conditions: 24 h, compound alone
Procedure: For Western blot, U2OS EA-MEM F508del CFTR (CSE-MEM) cells were seeded in six well plates at a density of 2.5e6 cells/well on day 1 and incubated at 37°C and 5% CO2. Cells were treated with corrector compounds on day 2 and were lysed 24 h later. For the lysis, cells were washed with 1 ml PBS and incubated with 300 μl cell dissociation solution/well (Sigma, Cat No. C5789-100ML) for 15 min at 37°C and 5% CO2. Medium was collected and centrifuged for 5 min at 1,000 rpm and the supernatant removed. The pellet was re-suspended for 30 min on ice in the lysis buffer containing 1% NP-40, 0.5% sodium deoxycholate, 200 mM NaCl, 10 mM Tris pH 7.8, 1 mM EDTA and a protease inhibitor cocktail tablet from Roche (Cat No. 11873580001). For gel electrophoresis, 2.5 μl 10X Nupage reducing agent (Invitrogen, Cat No. NP0004) and 6 μl 4X Nupage sample buffer (Invitrogen, Cat No. NP0007) were added to 17 μl lysate and incubated for 15 min at 37°C. […]

T1 sequence (P13569 with tags, fused parts or gaps DEL508-508): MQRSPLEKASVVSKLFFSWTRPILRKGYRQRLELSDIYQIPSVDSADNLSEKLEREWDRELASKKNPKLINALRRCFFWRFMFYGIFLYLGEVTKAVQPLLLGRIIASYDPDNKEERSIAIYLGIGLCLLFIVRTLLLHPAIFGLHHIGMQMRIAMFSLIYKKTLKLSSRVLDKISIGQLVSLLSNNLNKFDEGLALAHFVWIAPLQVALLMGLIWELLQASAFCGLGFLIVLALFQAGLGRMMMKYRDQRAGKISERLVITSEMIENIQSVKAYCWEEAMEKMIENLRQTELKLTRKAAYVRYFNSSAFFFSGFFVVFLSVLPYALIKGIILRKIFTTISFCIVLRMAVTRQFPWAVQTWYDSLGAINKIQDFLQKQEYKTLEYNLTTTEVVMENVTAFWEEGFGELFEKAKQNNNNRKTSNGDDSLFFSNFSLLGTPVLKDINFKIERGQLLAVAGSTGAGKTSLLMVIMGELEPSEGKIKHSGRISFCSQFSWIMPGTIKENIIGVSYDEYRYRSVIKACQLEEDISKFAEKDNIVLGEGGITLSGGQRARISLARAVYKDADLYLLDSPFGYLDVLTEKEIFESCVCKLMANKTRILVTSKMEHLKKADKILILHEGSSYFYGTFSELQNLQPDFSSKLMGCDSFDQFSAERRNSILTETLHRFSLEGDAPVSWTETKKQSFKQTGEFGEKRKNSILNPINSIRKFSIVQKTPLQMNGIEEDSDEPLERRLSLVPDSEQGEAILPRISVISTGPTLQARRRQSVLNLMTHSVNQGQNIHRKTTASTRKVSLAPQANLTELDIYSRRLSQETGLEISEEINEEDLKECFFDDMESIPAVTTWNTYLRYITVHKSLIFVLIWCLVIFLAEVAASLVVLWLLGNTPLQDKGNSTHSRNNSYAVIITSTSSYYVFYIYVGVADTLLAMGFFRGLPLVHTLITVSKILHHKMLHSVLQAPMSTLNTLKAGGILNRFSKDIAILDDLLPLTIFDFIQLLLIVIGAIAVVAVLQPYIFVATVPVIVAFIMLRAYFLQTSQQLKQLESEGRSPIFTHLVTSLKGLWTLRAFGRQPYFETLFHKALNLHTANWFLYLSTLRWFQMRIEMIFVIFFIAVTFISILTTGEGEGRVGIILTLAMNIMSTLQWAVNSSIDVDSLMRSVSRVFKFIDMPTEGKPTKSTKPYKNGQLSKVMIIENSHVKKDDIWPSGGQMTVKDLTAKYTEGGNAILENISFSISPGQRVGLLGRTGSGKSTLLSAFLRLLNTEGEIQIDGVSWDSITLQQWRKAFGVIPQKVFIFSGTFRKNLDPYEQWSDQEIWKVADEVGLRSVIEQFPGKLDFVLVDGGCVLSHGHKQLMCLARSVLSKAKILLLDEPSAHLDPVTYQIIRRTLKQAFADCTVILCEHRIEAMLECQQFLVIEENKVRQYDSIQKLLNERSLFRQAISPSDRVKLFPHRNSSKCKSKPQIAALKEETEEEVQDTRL

% F508del PM Expression vs control (F508del CFTR [1]; + 3 μM VX809): 415%
EC50 (F508del CFTR [1]; no co-corrector): 707 nM
% F508del PM Expression vs control (F508del CFTR [1]; no co-corrector): 197%
Band C (mature complex-glycosylated F508del CFTR) (F508del CFTR [2]): confirmed
Compound: COC1CCN(C2CCN(c3cc(C(=O)NS(=O)(=O)N(C)C)nc4c3c(C3CCC3)nn4-c3ccc(F)cc3)CC2)CC1 [GLPG2737]
